How the values were obtained:
Format in all cases: binding
CXCR4 = target: T1, CXCR4 (Homo sapiens, UniProt P61073); assay: NanoBRET screen HiBiT-CXCR4 in HEK293; settings: CXCR4
T1 construct: purchased Promega (in-house HiBiT-GPCR construct library, NanoBRET)
Method: (§1) Each tracer candidate was screened across the entire library of HiBiT-GPCR constructs using NanoBRET as the detection modality. As depicted in Figure 4A, the specificity of interactions was evaluated through decrease in BRET due to competitive displacement of a bound tracer by excess parental compound. Each tracer was analyzed for binding to each HiBiT-GPCR fusion in the absence and in the presence of competing parental compound. Briefly, HEK293 cells were transfected with HiBiT-GPCR constructs diluted into promoterless DNA to reduce expression and maximize translocation to the cell surface. Each tracer candidate was then screened at concentrations of 1 μM and 0.1 μM across cells expressing these fusions. Cells were treated for 1.5 h with tracer either alone or in the presence of 20 μM competing parental compound (i.e., control). BRET was measured upon addition of purified LgBiT and subsequent complementation with HiBiT genetically fused to a GPCR. The specificity of interactions was assessed through a decrease in BRET signal due to competitive displacement of the bound tracer. To further gauge the robustness of these interactions, the fold response over the control (i.e., BRETtracer/BRETcontrol) was calculated. We chose a 1.5-fold response, which translates to ≥7-fold signal over noise as the minimal threshold required to score an interaction as positive. […]. Below we highlight the screening results obtained for our exemplary fluorescent tracers based on Clozapine, Amitriptyline and AZD1283.
(§2) HiBiT-GPCR DNA constructs were diluted in 10 mM Tris pH 8 to a final concentration of 0.01 μg/μL, arrayed in 96-well plates and stored at −20 °C. For transfection, HEK293 cells were suspended in Opti-MEM (without phenol red) supplemented with 2% fetal bovine serum (Seradigm) and 100 units/mL penicillin–streptomycin (Gibco) at a final concentration of 220,000 cells/mL and dispensed into white 96-well plates at 90 μL/well. Subsequent transfections and screens were carried using an Agilent Bravo Automated Liquid Handling Platform. First, the 96-well HiBiT DNA arrays were diluted 25-fold in Opti-MEM (without serum or phenol red) to a final concentration of 0.0004 μg/μL and 20 μL of the diluted DNAs were transferred into new 96-well plates. Next, promoterless carrier DNA (1 μg/μL) was diluted 25-fold (0.04 μg/μL) and then dispensed into the diluted arrays at 20 μL/well. Following brief mixing, Viafect transfection reagent (Promega) diluted 16-fold into Opti-MEM was dispensed into the plates at 40 μL/well. After mixing by pipetting, plates were incubated for 10 min on the pipetting station deck. The DNA-transfection reagent complexes were then added to plates containing cells. To facilitate the screen, 10 μL of DNA-transfection reagent complexes were added in duplicates to the top 4 and bottom 4 rows, resulting in two identical 48-well arrays per plate. Plates with transfected cells were incubated for 18–20 h at 37 °C/5% CO2. A screen of each tracer across the entire library using two different concentrations requires duplicate plates of transfected cells. Depending on the number of tracers being screened, transfections can be scaled up using the same ratios. The next day, for each tracer, four 20× screening solutions in tracer dilution buffer (Promega) were prepared: two duplicates at final concentration of 20 μM and two duplicates at a final concentration of 2 μM. A competing unmodified compound was added to one of each duplicate at a final concentration of 400 μM. The four resulting solutions were diluted 4-fold in Opti-MEM without serum or phenol red to generate 5× solutions (5 µM and 0.5 µM tracer +/− 100 μM competing compound). To screen the library, a BioTek MultiFlo FX liquid dispenser was used to dispense 22.5 µL of tracer solution to the top 4 rows and 22.5 µL tracer + competing compound solution to the 4 bottom rows. Plates were briefly mixed on an orbital shaker and incubated for 1.5 h at room temperature. […]

GABBR1 = target: T2, GABBR1 (Homo sapiens, UniProt Q9UBS5); assay: NanoBRET screen HiBiT-GABBR1 in HEK293; settings: GABBR1
T2 construct: purchased Promega (in-house HiBiT-GPCR construct library, NanoBRET)
T2 sequence (Q9UBS5 15-961 limits assumed): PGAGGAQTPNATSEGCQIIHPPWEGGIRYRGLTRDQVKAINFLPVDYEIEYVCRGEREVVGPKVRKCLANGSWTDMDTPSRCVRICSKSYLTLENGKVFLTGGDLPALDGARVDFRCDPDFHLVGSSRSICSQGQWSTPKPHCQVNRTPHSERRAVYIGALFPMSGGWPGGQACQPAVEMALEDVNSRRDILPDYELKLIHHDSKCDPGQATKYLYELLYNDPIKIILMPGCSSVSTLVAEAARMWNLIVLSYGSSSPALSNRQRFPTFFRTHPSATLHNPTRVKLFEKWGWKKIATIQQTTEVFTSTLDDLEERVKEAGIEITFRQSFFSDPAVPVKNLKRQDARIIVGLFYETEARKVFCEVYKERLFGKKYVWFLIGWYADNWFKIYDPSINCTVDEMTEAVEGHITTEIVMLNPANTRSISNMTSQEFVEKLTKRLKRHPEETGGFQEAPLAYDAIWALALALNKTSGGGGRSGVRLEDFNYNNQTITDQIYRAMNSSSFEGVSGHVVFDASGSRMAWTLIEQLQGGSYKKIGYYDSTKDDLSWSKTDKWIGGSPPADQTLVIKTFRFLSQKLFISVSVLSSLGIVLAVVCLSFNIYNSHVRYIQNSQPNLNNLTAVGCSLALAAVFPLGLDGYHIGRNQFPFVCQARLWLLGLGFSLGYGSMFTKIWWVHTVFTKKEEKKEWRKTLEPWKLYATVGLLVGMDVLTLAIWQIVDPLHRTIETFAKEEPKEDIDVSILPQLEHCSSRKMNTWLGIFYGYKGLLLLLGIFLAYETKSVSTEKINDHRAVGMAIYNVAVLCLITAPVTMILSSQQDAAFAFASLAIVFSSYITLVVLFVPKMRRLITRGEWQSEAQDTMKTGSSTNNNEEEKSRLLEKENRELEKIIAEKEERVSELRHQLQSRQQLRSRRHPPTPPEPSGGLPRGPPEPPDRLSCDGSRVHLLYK
Method: as §1, §2

F2R = target: T3, F2R (Homo sapiens, UniProt P25116); assay: NanoBRET screen HiBiT-F2R in HEK293; settings: F2R
T3 construct: purchased Promega (in-house HiBiT-GPCR construct library, NanoBRET)
T3 sequence (P25116 22-425): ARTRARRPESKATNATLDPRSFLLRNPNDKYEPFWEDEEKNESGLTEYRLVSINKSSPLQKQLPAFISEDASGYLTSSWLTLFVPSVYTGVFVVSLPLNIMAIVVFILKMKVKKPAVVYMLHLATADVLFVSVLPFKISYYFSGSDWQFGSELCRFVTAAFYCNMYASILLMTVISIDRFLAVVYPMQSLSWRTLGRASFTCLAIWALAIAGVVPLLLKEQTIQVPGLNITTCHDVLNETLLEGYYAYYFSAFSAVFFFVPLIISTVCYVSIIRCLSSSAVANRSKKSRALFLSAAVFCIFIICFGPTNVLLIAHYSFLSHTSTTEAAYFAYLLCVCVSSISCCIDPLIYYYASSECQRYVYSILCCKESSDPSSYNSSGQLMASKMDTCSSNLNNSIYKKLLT
Method: as §1, §2

PTGER2 = target: T4, PTGER2 (Homo sapiens, UniProt P43116); assay: NanoBRET screen HiBiT-PTGER2 in HEK293; settings: PTGER2
T4 construct: purchased Promega (in-house HiBiT-GPCR construct library, NanoBRET)
T4 sequence (P43116 whole entry): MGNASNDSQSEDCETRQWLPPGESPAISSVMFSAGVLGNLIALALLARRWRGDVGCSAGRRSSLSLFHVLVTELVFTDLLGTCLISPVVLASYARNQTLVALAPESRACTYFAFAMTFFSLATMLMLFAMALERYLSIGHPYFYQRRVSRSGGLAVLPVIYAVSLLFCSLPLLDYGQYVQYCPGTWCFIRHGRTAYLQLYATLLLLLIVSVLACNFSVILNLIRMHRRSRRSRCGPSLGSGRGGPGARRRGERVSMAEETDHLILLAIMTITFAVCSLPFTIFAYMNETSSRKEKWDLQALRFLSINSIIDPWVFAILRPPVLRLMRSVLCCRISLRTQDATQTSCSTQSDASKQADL
Method: as §1, §2

HCRTR2 = target: T5, HCRTR2 (Homo sapiens, UniProt O43614); assay: NanoBRET screen HiBiT-HCRTR2 in HEK293; settings: HCRTR2
T5 construct: purchased Promega (in-house HiBiT-GPCR construct library, NanoBRET)
T5 sequence (O43614 1-444): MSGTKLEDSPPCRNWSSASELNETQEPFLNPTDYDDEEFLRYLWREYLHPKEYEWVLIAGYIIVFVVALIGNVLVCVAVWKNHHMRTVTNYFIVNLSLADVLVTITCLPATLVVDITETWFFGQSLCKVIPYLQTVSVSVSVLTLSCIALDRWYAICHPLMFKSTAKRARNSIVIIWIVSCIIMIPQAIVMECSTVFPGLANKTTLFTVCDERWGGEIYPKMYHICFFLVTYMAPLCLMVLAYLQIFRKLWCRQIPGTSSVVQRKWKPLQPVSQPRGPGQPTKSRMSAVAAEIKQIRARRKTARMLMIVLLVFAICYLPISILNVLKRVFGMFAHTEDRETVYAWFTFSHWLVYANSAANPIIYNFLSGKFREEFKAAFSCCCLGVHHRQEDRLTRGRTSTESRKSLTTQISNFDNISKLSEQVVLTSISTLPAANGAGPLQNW
Method: as §1, §2

NPBWR2 = target: T6, NPBWR2 (Homo sapiens, UniProt P48146); assay: NanoBRET screen HiBiT-NPBWR2 in HEK293; settings: NPBWR2
T6 construct: purchased Promega (in-house HiBiT-GPCR construct library, NanoBRET)
T6 sequence (P48146 whole entry): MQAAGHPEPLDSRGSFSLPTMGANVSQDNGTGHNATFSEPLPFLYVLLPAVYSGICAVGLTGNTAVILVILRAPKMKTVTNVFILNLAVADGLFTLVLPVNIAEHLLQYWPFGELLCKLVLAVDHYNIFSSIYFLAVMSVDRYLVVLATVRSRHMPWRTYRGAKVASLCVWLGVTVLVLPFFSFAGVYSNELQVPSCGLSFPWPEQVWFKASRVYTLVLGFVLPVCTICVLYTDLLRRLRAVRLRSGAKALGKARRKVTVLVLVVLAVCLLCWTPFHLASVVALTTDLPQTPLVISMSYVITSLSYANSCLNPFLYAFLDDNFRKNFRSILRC
Method: as §1, §2

HRH2 = target: T7, HRH2 (Homo sapiens, UniProt P25021); assay: NanoBRET screen HiBiT-HRH2 in HEK293; settings: HRH2
T7 construct: purchased Promega (in-house HiBiT-GPCR construct library, NanoBRET)
T7 sequence (P25021 whole entry): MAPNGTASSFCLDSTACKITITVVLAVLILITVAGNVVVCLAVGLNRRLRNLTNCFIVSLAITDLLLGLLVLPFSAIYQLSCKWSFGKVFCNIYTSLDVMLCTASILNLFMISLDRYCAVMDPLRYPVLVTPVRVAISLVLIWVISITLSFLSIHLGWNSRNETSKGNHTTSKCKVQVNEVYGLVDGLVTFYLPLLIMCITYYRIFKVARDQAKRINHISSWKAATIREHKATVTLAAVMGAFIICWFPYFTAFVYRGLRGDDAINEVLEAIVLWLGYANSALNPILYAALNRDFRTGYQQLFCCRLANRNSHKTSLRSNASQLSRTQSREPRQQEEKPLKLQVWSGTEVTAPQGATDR
Method: as §1, §2

T1 sequence (P61073 whole entry): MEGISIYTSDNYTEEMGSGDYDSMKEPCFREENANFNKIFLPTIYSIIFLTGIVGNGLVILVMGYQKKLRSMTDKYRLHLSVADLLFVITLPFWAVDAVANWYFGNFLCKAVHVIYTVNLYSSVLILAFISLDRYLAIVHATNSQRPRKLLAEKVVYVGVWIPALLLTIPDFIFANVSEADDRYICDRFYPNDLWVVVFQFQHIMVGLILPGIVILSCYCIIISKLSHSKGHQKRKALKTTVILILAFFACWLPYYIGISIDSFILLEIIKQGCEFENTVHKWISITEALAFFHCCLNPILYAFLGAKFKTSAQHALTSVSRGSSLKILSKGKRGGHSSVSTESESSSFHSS

| Compound | NanoBRET Fold Response (CXCR4; tracer 0.1μM) | NanoBRET Fold Response (CXCR4; tracer 1μM) | NanoBRET Fold Response (GABBR1; tracer 0.1μM) | NanoBRET Fold Response (GABBR1; tracer 1μM) | NanoBRET Fold Response (F2R; tracer 0.1μM) | NanoBRET Fold Response (F2R; tracer 1μM) | NanoBRET Fold Response (PTGER2; tracer 0.1μM) | NanoBRET Fold Response (PTGER2; tracer 1μM) | NanoBRET Fold Response (HCRTR2; tracer 0.1μM) | NanoBRET Fold Response (HCRTR2; tracer 1μM) | NanoBRET Fold Response (NPBWR2; tracer 0.1μM) | NanoBRET Fold Response (NPBWR2; tracer 1μM) | NanoBRET Fold Response (HRH2; tracer 0.1μM) | NanoBRET Fold Response (HRH2; tracer 1μM) | further results |
| --- | --- | --- | --- | --- | --- | --- | --- | --- | --- | --- | --- | --- | --- | --- | --- |
| O=C(CCc1ccc2n1[B-](F)(F)[N+]1=C(c3ccc[nH]3)C=CC1=C2)NCc1ccc(C(=O)NCCOCCOCCNCC(O)COc2cccc3ccccc23)cc1 (stereo not drawn) [Propranolol-3-NB590] | – | – | – | – | – | – | – | – | – | – | – | – | – | – | NanoBRET Fold Response (CXCR4; 0.1μM): 1.04; NanoBRET Fold Response (CXCR4; 1μM): 1.02; NanoBRET Fold Response (GABBR1; 0.1μM): 1.10; NanoBRET Fold Response (GABBR1; 1μM): 1.05; NanoBRET Fold Response (F2R; 0.1μM): 1.04; NanoBRET Fold Response (F2R; 1μM): 1.06; NanoBRET Fold Response (PTGER2; 0.1μM): 1.00; NanoBRET Fold Response (PTGER2; 1μM): 1.02; NanoBRET Fold Response (HCRTR2; 0.1μM): 1.09; NanoBRET Fold Response (HCRTR2; 1μM): 1.00; NanoBRET Fold Response (NPBWR2; 0.1μM): 1.05; NanoBRET Fold Response (NPBWR2; 1μM): 1.05; NanoBRET Fold Response (HRH2; 0.1μM): 1.12; NanoBRET Fold Response (HRH2; 1μM): 0.97 |
| O=C(CCc1ccc2n1[B-](F)(F)[N+]1=C(c3ccc[nH]3)C=CC1=C2)NCc1ccc(C(=O)NCCOCCC(=O)N[C@@H]2CC[C@@]3(O)[C@H]4Cc5ccc(O)c6c5[C@@]3(CCN4CC3CC3)[C@H]2O6)cc1 [Naltrexone-3-NB590] | 1.30 | 0.84 | 0.93 | 0.49 | 1.02 | 0.99 | 1.04 | 1.00 | 1.04 | 1.01 | 1.05 | 1.04 | 0.85 | 1.34 | – |
| COc1ccccc1N1CCN(CCCCN2C(=O)c3ccc(CNC(=O)CCOCCNC(=O)c4ccc(CNC(=O)CCc5ccc6n5[B-](F)(F)[N+]5=C(c7ccc[nH]7)C=CC5=C6)cc4)cc3C2=O)CC1 [NAN-190-3-NB590] | 1.24 | 1.08 | 0.80 | 1.07 | 0.97 | 1.11 | 1.06 | 1.00 | 0.98 | 0.97 | 0.96 | 0.79 | 1.07 | 1.08 | – |

Reference: article PMC8151276, “An Integrated Approach toward NanoBRET Tracers for Analysis of GPCR Ligand Engagement” (Molecules, 2021)
